Laboratory results as given in EP0334967B1, “KERATOSIS-TREATING AGENT” (priority 1987, dated 1989).
Where two headings read alike, the source gives them in different places.

Assays:
[1] = tested on: male mice of the ICR line; experiment: Acute toxicity test; conditions: mouse, in vivo, po, 500 mg/kg
Method: (§1) The acute toxicity test of cis-(6)-shogaol was carried out by using male mice of the ICR line.

5-lipoxygenase = molecular target: T1, 5-lipoxygenase (Rattus norvegicus, UniProt P12527); experiment: 5-Lipoxygenase-inhibiting action (5-HETE formation, enzyme from RBL-1 cultured cells); format: biochemical; conditions: 5-lipoxygenase from RBL-1 cells, 10 µM arachidonic acid, 37°C 10 minutes; tested at 5, 1 or 0.5 µM
T1 construct: The supernatant was used as the standard enzyme of 5-lipoxygenase; endogenous in cells; host or cells: RBL-1 cultured cells, sonicated; 105,000 x G supernatant
T1 sequence (P12527 1-673): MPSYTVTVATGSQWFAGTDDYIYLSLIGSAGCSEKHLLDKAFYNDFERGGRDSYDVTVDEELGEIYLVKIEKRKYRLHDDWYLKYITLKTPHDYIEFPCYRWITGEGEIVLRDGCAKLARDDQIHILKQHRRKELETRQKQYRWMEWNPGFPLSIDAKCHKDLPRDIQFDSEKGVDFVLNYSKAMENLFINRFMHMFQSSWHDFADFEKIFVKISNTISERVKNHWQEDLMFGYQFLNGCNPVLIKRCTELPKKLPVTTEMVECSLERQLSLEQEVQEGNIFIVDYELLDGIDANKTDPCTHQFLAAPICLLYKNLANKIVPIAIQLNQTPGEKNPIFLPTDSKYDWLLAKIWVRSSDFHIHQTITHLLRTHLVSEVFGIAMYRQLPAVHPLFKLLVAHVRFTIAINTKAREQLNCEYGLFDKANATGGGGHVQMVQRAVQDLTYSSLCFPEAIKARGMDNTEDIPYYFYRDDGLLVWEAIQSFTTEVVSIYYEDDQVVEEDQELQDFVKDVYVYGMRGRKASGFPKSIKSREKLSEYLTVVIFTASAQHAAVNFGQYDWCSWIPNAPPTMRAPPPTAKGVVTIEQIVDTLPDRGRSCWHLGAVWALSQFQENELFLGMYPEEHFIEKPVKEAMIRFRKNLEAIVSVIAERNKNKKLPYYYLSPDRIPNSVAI
Method: RBL-1 cultured cells were suspended in a 50 mM phosphate buffer solution (pH 7.4) containing 1 mM EDTA and 10% ethylene glycol so that the cell concentration was 5 x 10⁶ per ml, and the cell suspension was subjected to an ultrasonic wave treatment. Then, centrifugal separation was carried out under 10,000 x G for 10 minutes and then under 105,000 x G for 60 minutes. The supernatant was used as the standard enzyme of 5-lipoxygenase.
A test tube was charged with a 50 mM phosphate buffer solution, 1.5 mM calcium chloride, 20 µM indomethacin, 18 mM glutathione, 6 mM ATP, 10 µM arachidonic acid, the obtained standard enzyme, and an ethanol solution of cis-(6)-shogaol, to a total volume of 0.6 ml and a final concentration of 5, 1 or 0.5 µM, and a reaction was carried out at 37°C for 10 minutes. […] The amount of 5-HETE in the liquid measured by the high-speed liquid chromatography [column = TSK-gel ODS-80TM (supplied by Toso), moving phase = acetonitrile/water/ acetic acid (60/40/0.02), flow rate = 1 ml/min, detection = ultraviolet ray (235 nm)], and the obtained value was designated as the enzyme activity. The inhibition ratio at each concentration was calculated by the following formula, and the concentration giving an inhibition ratio of 50% (hereinafter referred to as "IC₅₀") was determined. […]

balb/c 3T3 cells = experiment: Inhibitory action to EGF stimulated cell growth (3H-thymidine incorporation); format: cell-based; conditions: 16 hours + 8 hours 3H-thymidine
Method: A culture medium (hereinafter referred to as "CS DMEM") containing 10% of calf serum, which was prepared so that 2.5 x 10⁴ of fibroblasts (balb/c 3T3 cells) were contained in 0.5 ml, was added in a 24-well plate in an amount of 0.5 ml per well. After the fibroblasts were confluent in the state of a single layer, the culture medium was replaced with the same amount of 1% CS DMEM and the cells were incubated at 37°C for 12 hours in a humidified atmosphere of 95% air-5% CO₂. Then, 1 µg/25 µl/well of trans-(6)-shogaol and 5 ng/25 µl/well of EGF (supplied by Collaborative Research, Inc.) were added, and the cells were further incubated for 16 hours. Then, 0.5 µCi(1.85+10⁻¹⁶S⁻¹)/50 µl of ³H-thymidine was added and the cells were further incubated 8 hours. The culture medium was removed, and the cells were washed with a cold phosphate buffered saline. […] The radioactivity of ³H-thymidine included in the cells by this growth was measured, and the action of trans-(6)-shogaol to the growth of the cells was examined.
10% CS DMEM prepared so that 2.5 x 10⁴ of fibroblasts (balb/c 3T3 cells) were contained in 0.5 ml were added in a 24-well plate in an amount of 0.5 ml/well. […] The radioactivity of ³H-thymidine included in the cells by this growth was measured, and the function of cis-(6)-shogaol to the growth of the cells was examined.

cyclooxygenase = experiment: Cyclooxygenase-inhibiting action (PGE2 formation, rabbit kidney marrow microsome fraction); format: biochemical; conditions: cyclooxygenase from rabbit kidney marrow microsomes, [1-14C] arachidonic acid, 37°C 15 minutes; tested at 40, 20, 10 or 5 µM
Method: To 7.0 g of rabbit kidney marrow was added 60 ml of a 0.1M phosphate buffer solution (pH 7.5) containing 1 mM glutathione, and the mixture was homogenized by using a polytrone. The homogenate was subjected to the centrifugal separation under. 105,000 x G for 60 minutes to obtain a microsome fraction, and the fraction was dissolved in 7 ml of a 0.1M phosphate buffer solution (pH 7.5) containing 1 mM glutathione to obtain a standard enzyme of cyclooxygenase.
To 15 µl of the obtained standard enzyme were added 4 mM glutathione, 10 mM tryptophan, 0.25 µM hemoglobin, and a phosphate buffer solution (pH 7.5), each concentration being the final concentration, and [1-¹⁴C] arachidonic acid (5 x 10⁴ dpm) and cis-(6)-shogaol were added to a final concentration of 40, 20, 10 or 5 µM and a total volume of 200 µl. Incubation was carried out at 37 °C for 15 minutes, and 1N hydrochloric acid was added to stop the reaction. Prostaglandin E₂ (PGE₂) was added as the carrier and the reaction product was extracted with 2 ml of ether. […] Coloration was effected with an iodine vapor, the portion corresponding of […] was scratched out, and the radioactivity of PGE₂ was measured by a liquid scintillation counter. The inhibition ratio at each concentration was calculated according to the following formula, and the 1C₅₀ was determined. […]

Acute toxicity test = experiment: Acute toxicity test; design: species or system mice; conditions: mouse, in vivo
Method: as §1

Compound	mortality [1]	IC50 (5-lipoxygenase)	growth inhibited, balb/c 3T3 cells the growth of which was promoted by EGF (balb/c 3T3 cells; Experiment 4: 0.5 µg/12.5 µl/well compound, 50 pg/25 µl/well mouse EGF)	IC50 (cyclooxygenase)	LD50 (Acute toxicity test; iv)	LD50 (Acute toxicity test; oral administration, Litchfield-Wilcoxon method, male ICR mice, read-out: LD50)	growth inhibited, balb/c 3T3 cells the growth of which was promoted by EGF (balb/c 3T3 cells; Experiment 1: 1 µg/25 µl/well compound, 5 ng/25 µl/well EGF)
CCCCC/C=C\C(=O)CCc1ccc(O)c(OC)c1 [cis-(6)-shogaol]	none of the mice died	0.83 µM	63.9%	11.7 µM			
CCCCC/C=C/C(=O)CCc1ccc(O)c(OC)c1 [trans-(6)-shogaol, 1(4-hydroxy-3-methoxyphenyl)-(E)-4-decen-3-one]					50.9 mg/kg	687 mg/kg	52.7%
